# Data: US20250120963A1, “METHODS AND COMPOSITIONS FOR THE TREATMENT OF THROMBOCYTOPENIA” (THE CHILDREN'S MEDICAL CENTER CORPORATION, priority 2023, published 2025)
# Legend:
# [1] = system: mice; conditions: 50 mg/kg daily i.p.; Niraparib 10 days, Olaparib 3 days
# Experimental: Mice were treated with 50 mg/kg Niraparib or Olaparib daily (i.p.) for 10 or 3 days, respectively, and platelet counts measured by SYSMEX™.
# FIG. 21A) Platelet count versus time. FIG. 21B) RBC count versus time. FIG. 21C) WBC count versus time.
# 8,9 Mice were treated with 50 mg/kg of Niraparib and Olaparib […].
# [2] = system: PARylation in megakaryocytes; assay: PARylation western blot in megakaryocytes subjected to hydrogen peroxide with or without Olaparib; format: cell-based, murine; conditions: 10 mM H2O2; Olaparib 30 μM or 3 μM
# Experimental: Lineage depleted murine bone marrow was cultured with TPO for 4 days. Gradient-isolated megakaryocytes subjected to 10 mM of hydrogen peroxide (H2O2) in the presence or absence of Olaparib (30 μM or 3 μM). Cells were subsequently lysed in RIPA buffer containing protease inhibitor cocktail. A western blot to detect PARylation was performed. Equal loading was confirmed using an anti-GAPDH antibody. Impage shown is a representative of three experiments.
# Lineage depleted murine bone marrow was cultured with TPO for 4 days. Gradient-isolated megakaryocytes were subjected to 10 mM of hydrogen peroxide (H2O2) in the presence or absence of olaparib (30 μM or 3 μM). Cells were subsequently lysed in RIPA buffer containing protease inhibitor cocktail. A western blot to detect PARylation was performed (FIG. 18). Equal loading was confirmed using an anti-GAPDH antibody.
# [3] = system: C57B1/6 mice; assay: Olaparib 50 mg/kg i.p. 5 consecutive days each week in C57B1/6 mice, 2-week and 4-week experiments; format: in vivo
# Experimental: C57B1/6 mice dosed with 50 mg/kg Olaparib intraperitoneally for 5 days consecutive days each week. Dark gray=vehicle, light gray=Olaparib.
# Olaparib treatment increases platelet count and alters megakaryocyte ploidy in mice. C57B1/6 mice were dosed with 50 mg/kg Olaparib intraperitoneally for 5 days consecutive days each week.
# [4] = system: lineage depleted murine bone marrow; assay: In vitro megakaryocyte differentiation: lineage depleted bone marrow cultured with TPO for 4 days with PARPi (VWF-GFP signal); format: cell-based; conditions: for megakaryocyte differentiation / megakaryopoiesis in vitro: TPO, 4 days, PARPi vs vehicle
# Experimental: Lineage depleted bone marrow was cultured with TPO for 4 days in the presence of PARPi or vehicle controls. FIG. 14A) representative images of VWF-GFP signal. FIG. 14B) Mean normalized area of GFP signal (n=3). Error bars±SEM.Circles=Olaparib, squares=Niraparib, triangles=Rucaparib.
# Lineage depleted bone marrow was cultured with TPO for 4 days in the presence of PARPi or vehicle controls (FIG. 14A-14B).
# Lineage depleted murine bone marrow was cultured with TPO for 4 days in the presence of PARPi or vehicle controls (FIG. 14A-14B).
# [5] = 0.03 μM vs vehicle
# [6] = system: platelets; conditions: platelets drawn on D11, 25 mg/kg; stimulated with ADP, TRAP or CRP; listed as niraparib
# Experimental: Platelets were drawn from mice at sacrifice on D11 (see FIG. 6), stimulated with agonists as indicated, and the MFI of activated αIIbβ3 measured by flow cytometry. Black markers=saline, gray markers=Niraparib, 25 mg/kg.
# Platelets were drawn from mice at sacrifice on D11, stimulated with agonists as indicated, and the MFI of activated αIIbβ3 measured by flow cytometry. Black=saline, gray=Niraparib (25 mg/kg).
# (§1) While MK ploidy is not directly causative of platelet production, higher ploidy MKs are associated with increased platelet production and ploidy status is indicative of more terminal MK maturation. To look further at live MKs, 2-photon intravital microscopy (2PIVM) was performed in the calvaria of vWF-GFP reporter mice (MKs and platelets are GFP+) treated with 25 mg/kg Niraparib or vehicle control DMSO for 7 days. Mice were anesthetized and a window in the calvaria was made to view the exposed bone marrow.
# Platelets were drawn from mice at sacrifice on D11, stimulated with agonists as indicated, and the MFI of activated αIIbβ3 measured by flow cytometry.
# [7] = system: mice
# Experimental: Mice were given Niraparib (25 mg/kg, intraperitoneal) or vehicle control for 11 days. FIG. 5A) Platelet counts and immature platelet fraction were measured on a SYSMEX™ hematology analyzer. Line graph: Black circles=Vehicle, gray squares=Niraparib. Bar charts: black=Vehicle, gray=Niraparib. FIG. 5B) MKs and MK-biased HSC counts. Dark gray=DMSO (vehicle), light gray=Niraparib. FIG. 5C) expression of γH2AX. Left bar=control, right bar=Niraparib, and FIG. 5D) MK ploidy was determined by flow cytometry (see FIGS. 9A-9C). n=4-5 mice per group. Gray=Niraparib, black=Vehicle.
# Mice were treated with a subtherapeutic dosage of the PARP inhibitor Niraparib (25 mg/kg, intraperitoneal) or saline control for 11 days. The dosing schedule was as follows: 5 consecutive days of Niraparib treatment followed by 2 days of drug holiday (no injection), then 4 more consecutive days of Niraparib treatment. Mice were sacrificed on day 11. Platelet counts were taken on days 0 (pre-treatment), 2, 7, 9, and 11. Cohorts of mice were sacrificed on days 3 and 11 for quantification of bone MK and progenitor populations. […] To.
# Niraparib treatment were measured.
# [8] = system: MKs in calvaria bone marrow of vWF-GFP reporter mice; conditions: 25 mg/kg, 7 days, vs DMSO
# Experimental: as §1
# [9] = system: patients; conditions: ITP patients; cited from earlier work
molecule,measurement,setting,value
"O=C(c1cc(Cc2n[nH]c(=O)c3ccccc23)ccc1F)N1CCN(C(=O)C2CC2)CC1 [Olaparib, 4-[(3-[(4-cyclopropylcarbonyl)piperazin-4-yl]carbonyl)-4-fluorophenyl]methyl (2H) phthalazin-1-one]",platelet counts at 50 mg/kg,[1],severe thrombocytopenia
same,megakaryocyte PARylation,[2],reverses PARylation pattern
same,platelet counts after day 6,[3]; 2-week and 4-week experiments,returned to approximately baseline
same,megakaryocyte ploidy shift after 2-weeks,[3]; 2 weeks,fewer 8N and more 32N cells
same,number of megakaryocytes (CD41+CD42+ flow cytometry of bone marrow) at 2-weeks,[3]; 2 weeks,trend to fewer megakaryocytes
same,megakaryocyte ploidy shift after 4-weeks,[3]; 4 weeks,more 8N and fewer 16N cells
same,number of megakaryocytes (CD41+CD42+ flow cytometry of bone marrow) at 4-weeks,[3]; 4 weeks,trend to fewer megakaryocytes
same,platelet count,"[3]; increase found at day 6, 2-week and 4-week experiments",surprising increase in platelet count
same,megakaryocyte differentiation / megakaryopoiesis in vitro,[4],reduce megakaryocyte differentiation
"NC(=O)c1cccc2cn(-c3ccc([C@@H]4CCCNC4)cc3)nc12 [Niraparib, 2-{4-[(3S)-Piperidin-3-yl]phenyl}-2H-indazole-7-carboxamide]",ploidy in vitro,[5],increases ploidy
same,platelet function / activation,[6],does not affect platelet function
same,number of MK-committed HSCs positive for γH2AX,[7]; 25 mg/kg i.p.,significantly increased
same,γH2AX-positive MKPs,[7]; 25 mg/kg i.p.,trend to more
same,2N MKs,"[7]; 25 mg/kg i.p., 11 days",almost no 2N MKs
same,number of 32N MKs,"[7]; 25 mg/kg i.p., 11 days",large increase
same,MK number / MK counts,"[7]; 25 mg/kg i.p., bone marrow, flow cytometry, listed as niraparib",increases
same,MK-committed HSCs (CD41+LT-HSCs) counts,"[7]; 25 mg/kg i.p., days preceding the increase in platelet counts",significant increase
same,immature platelet fraction,"[7]; 25 mg/kg i.p., from day 7, vs saline",significant increase
same,"platelets, percent of normal levels",[7]; Niraparib treated mice,> 150 % of normal levels
same,MKs in day 3 HSPC/myeloid panel,"[7]; day 3, committed progenitors and classical hematopoiesis pathways",Significant increase in MKs
same,day 11 HSPC/myeloid panel: HSC status,[7]; day 11,HSC exhaustion
same,megakaryopoiesis,[7]; lower doses of niraparib,increase in megakaryopoiesis
same,time to significant increase in mouse platelet count,"[7]; lower doses of niraparib, from initial administration",≤ 7 days
same,"DNA damage accumulation in megakaryocytes, γH2AX immunofluorescence on long bones",[7]; niraparib group,Increased DNA damage accumulation
same,MK number in bone marrow by 2-photon intravital microscopy,[8],increased MK number
same,megakaryocyte differentiation / megakaryopoiesis in vitro,[4],reduce megakaryocyte differentiation
same,megakaryocyte maturation in vitro at higher doses,"[4]; lineage depleted bone marrow cells from WT mice, higher doses",decreased maturation
same,megakaryocyte maturation in vitro at lower doses,"[4]; lineage depleted bone marrow cells from WT mice, lower doses",increased megakaryocyte maturation
"Rituximab: treatment for ITP patients, which can take 4-6 weeks for peak results",time for peak results,[9],4-6 weeks
